This is an account of results in article PMC8706783 (Pharmaceutics, 2021).

In one series the target is T1, UGT1A6 (Homo sapiens, UniProt P19224).
T1 sequence (P19224 27-532): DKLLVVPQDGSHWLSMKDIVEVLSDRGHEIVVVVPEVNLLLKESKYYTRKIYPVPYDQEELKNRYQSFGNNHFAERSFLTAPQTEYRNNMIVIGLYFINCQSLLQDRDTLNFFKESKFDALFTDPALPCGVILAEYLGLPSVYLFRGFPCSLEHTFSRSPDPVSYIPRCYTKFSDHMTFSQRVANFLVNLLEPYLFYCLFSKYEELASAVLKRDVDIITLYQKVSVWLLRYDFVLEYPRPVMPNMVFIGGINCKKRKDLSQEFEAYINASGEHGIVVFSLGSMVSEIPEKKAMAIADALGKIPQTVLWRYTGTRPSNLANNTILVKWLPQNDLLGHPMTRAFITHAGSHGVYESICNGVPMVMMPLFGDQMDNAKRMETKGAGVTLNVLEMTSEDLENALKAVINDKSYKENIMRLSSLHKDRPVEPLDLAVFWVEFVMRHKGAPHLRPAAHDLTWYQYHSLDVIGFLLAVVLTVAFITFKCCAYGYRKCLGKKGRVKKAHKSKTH
Description: Reaction phenotyping, rUGT1A6. Particulars: recombinant UGT1A6, pH 7.4.

In another series the target is T2, UGT1A8 (Homo sapiens, UniProt Q9HAW9).
T2 sequence (Q9HAW9 26-530): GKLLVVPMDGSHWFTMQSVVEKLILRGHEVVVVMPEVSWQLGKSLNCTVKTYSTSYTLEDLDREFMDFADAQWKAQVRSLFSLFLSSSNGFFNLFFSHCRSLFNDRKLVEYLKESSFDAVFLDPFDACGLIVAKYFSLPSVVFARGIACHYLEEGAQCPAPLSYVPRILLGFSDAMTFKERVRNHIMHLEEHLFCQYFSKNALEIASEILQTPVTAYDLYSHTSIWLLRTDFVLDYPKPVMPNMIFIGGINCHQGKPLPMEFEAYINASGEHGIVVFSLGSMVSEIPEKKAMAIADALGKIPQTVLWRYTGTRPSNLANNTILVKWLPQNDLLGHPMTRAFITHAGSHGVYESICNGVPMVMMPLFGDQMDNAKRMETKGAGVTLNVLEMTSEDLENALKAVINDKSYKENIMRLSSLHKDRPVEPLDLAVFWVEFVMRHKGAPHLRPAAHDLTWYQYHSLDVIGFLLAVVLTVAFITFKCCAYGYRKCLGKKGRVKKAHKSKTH
The experiment in a line: Reaction phenotyping, rUGT1A8. The note with it: recombinant UGT1A8, pH 7.4.

Series [1] is described as follows: Reaction phenotyping, HLM with UDPGA. Particulars: human, human liver microsomes, pH 7.4. (In general: Liver microsomes are vesicles of endoplasmic reticulum, rich in cytochrome P450 enzymes.)
Another series deals with T3, UGT1A7 (Homo sapiens, UniProt Q9HAW7).
T3 sequence (Q9HAW7 26-530): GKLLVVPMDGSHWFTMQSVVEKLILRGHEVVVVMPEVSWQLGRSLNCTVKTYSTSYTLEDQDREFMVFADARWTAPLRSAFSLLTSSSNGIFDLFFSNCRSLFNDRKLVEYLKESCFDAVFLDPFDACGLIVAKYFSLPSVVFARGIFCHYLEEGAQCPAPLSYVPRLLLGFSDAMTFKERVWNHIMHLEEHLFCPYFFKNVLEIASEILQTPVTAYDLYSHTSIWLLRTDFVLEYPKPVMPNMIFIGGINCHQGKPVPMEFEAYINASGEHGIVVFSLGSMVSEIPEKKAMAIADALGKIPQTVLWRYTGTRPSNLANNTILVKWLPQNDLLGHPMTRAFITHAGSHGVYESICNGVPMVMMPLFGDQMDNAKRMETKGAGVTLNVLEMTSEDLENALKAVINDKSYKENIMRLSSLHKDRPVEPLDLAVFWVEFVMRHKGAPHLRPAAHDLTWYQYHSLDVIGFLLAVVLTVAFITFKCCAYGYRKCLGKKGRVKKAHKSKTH
Description: Reaction phenotyping, rUGT1A7. Particulars: recombinant UGT1A7, pH 7.4.

For a further series, the target named is rCYP1B1 (Homo sapiens, UniProt Q16678). Particulars: recombinant enzyme, 1 h.
rCYP1B1, sequence (Q16678 whole entry): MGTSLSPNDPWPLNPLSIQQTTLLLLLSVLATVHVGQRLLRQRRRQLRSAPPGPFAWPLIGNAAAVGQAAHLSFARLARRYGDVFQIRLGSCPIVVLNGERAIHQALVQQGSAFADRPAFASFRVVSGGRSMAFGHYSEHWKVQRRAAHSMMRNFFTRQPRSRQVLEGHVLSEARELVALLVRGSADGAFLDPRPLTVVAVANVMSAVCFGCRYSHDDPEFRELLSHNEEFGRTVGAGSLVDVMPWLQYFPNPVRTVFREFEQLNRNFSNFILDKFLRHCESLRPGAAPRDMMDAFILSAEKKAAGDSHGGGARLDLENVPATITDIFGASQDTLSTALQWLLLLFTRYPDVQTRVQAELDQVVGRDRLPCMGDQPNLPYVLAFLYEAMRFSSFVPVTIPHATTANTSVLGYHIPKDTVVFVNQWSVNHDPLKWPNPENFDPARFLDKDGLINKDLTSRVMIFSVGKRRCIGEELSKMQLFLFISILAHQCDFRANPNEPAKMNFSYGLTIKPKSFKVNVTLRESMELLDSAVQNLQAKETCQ
The next series concerns the target T4, UGT1A3 (Homo sapiens, UniProt P35503).
T4 sequence (P35503 29-534): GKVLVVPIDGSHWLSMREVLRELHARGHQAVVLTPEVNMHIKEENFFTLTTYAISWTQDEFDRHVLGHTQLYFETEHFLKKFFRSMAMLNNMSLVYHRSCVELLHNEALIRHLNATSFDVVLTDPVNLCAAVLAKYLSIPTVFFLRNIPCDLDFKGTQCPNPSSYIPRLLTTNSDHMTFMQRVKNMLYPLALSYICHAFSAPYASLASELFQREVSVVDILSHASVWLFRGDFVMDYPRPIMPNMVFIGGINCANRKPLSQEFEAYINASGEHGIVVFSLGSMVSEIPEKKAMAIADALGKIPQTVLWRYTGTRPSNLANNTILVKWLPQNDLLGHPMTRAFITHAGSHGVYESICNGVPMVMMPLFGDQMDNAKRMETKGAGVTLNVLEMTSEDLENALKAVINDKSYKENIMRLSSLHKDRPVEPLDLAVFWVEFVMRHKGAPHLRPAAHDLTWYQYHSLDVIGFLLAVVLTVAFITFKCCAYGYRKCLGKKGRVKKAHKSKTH
Description: Reaction phenotyping, rUGT1A3. The note with it: recombinant UGT1A3, pH 7.4.

Another series has as its target T5, UGT1A9 (Homo sapiens, UniProt O60656).
T5 sequence (O60656 26-530): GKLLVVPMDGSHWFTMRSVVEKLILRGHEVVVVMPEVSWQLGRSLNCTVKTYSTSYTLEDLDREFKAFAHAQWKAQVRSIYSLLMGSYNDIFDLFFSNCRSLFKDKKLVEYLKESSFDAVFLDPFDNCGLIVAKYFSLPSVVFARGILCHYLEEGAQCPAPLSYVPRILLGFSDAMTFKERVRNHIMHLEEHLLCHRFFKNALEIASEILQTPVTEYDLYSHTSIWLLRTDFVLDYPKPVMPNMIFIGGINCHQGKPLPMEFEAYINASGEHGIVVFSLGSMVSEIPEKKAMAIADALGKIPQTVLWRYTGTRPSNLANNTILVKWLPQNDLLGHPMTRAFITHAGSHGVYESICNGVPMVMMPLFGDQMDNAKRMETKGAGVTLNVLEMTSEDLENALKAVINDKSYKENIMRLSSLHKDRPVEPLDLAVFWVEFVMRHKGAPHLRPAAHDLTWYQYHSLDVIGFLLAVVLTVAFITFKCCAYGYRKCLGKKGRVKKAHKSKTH
Description: Reaction phenotyping, rUGT1A9. The note with it: recombinant UGT1A9, pH 7.4.

The target in a further series is T6, CYP1A2 (Homo sapiens, UniProt P05177).
T6 sequence (P05177 1-516): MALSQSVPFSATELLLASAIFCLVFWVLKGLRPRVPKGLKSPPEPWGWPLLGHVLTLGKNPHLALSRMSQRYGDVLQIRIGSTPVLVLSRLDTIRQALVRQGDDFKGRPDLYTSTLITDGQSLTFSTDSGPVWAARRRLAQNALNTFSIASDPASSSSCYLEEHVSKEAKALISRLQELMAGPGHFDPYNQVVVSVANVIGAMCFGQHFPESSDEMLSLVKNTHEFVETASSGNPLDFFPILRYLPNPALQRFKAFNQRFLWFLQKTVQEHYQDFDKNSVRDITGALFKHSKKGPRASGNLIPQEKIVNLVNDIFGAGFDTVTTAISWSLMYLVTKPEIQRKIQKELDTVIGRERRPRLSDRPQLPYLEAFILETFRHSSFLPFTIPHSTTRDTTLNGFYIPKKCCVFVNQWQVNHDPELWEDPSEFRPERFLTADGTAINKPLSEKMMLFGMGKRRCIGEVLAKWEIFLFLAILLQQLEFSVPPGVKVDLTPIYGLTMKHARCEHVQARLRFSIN
The experiment in a line: Reaction phenotyping, rCYP1A2. The note with it: recombinant CYP1A2, pH 7.4.

The target in a further series is T7, CYP1A1 (Homo sapiens, UniProt P04798).
T7 sequence (P04798 1-512): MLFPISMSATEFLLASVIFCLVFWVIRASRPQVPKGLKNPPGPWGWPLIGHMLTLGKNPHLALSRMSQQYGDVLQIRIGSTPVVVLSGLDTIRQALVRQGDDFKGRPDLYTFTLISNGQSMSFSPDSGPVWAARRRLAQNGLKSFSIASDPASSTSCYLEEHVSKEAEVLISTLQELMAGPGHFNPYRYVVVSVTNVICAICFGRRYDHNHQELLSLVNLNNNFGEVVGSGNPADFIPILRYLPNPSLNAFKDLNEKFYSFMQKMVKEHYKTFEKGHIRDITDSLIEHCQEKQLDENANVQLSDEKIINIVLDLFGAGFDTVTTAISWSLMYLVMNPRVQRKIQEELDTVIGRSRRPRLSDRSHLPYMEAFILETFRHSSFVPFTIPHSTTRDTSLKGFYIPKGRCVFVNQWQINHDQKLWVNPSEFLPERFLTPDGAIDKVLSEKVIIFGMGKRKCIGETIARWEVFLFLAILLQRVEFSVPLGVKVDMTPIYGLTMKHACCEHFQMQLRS
The experiment in a line: Reaction phenotyping, rCYP1A1. The note with it: recombinant CYP1A1, pH 7.4.

Another series addresses T8, UGT1A4 (Homo sapiens, UniProt P22310).
T8 sequence (P22310 29-534): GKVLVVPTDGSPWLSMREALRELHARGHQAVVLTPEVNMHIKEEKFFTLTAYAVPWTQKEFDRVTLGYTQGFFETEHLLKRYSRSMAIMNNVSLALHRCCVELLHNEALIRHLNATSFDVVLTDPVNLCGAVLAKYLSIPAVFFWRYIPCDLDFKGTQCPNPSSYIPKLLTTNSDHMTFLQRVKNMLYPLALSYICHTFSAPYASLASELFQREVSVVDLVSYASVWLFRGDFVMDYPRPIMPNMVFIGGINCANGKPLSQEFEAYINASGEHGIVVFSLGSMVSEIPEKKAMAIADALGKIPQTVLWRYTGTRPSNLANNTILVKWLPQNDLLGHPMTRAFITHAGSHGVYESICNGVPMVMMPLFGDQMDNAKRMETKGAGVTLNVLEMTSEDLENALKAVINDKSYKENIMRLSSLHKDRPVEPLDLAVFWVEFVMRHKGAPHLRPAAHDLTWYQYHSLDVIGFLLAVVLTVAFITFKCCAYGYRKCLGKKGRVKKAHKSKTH
The experiment in a line: Reaction phenotyping, rUGT1A4. Particulars: recombinant UGT1A4, pH 7.4.

The target in another series is T9, UGT2B7 (Homo sapiens, UniProt P16662).
T9 sequence (P16662 24-529): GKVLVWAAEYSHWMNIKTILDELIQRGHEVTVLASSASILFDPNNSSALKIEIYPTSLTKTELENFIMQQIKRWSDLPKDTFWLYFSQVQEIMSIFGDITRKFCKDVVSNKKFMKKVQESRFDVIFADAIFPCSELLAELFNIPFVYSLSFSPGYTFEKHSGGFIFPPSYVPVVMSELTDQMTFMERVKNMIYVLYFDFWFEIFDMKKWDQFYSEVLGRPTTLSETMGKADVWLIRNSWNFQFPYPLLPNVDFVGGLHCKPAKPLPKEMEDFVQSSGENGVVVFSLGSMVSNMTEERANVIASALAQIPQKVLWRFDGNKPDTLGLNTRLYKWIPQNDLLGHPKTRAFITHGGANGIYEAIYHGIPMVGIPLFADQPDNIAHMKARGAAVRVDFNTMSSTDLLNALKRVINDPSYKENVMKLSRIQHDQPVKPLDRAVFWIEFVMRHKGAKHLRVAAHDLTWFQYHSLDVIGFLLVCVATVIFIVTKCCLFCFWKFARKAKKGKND
Description: Reaction phenotyping, rUGT2B7. Particulars: recombinant UGT2B7, pH 7.4.

Each structure is given as a SMILES string.

Turning to `Cc1cc(=O)oc2cc(O)ccc12` [4-methylumbelliferone], the values for the fraction remaining at 1 h, 2 µM (at UGT1A6; at UGT1A8; in series [1]) were 5.26%, 49.9% and 0.82%, respectively. Moreover, at UGT1A7, the fraction remaining (commonly what is left of the initial amount, in per cent) at 1 h, 10 µM is 70.9%.

Take `CCOc1ccc2nc3ccc(=O)cc-3oc2c1` [7-ethoxyresorufin]: at rCYP1B1, the “Known Substrate (% Remaining at 60 min)” value is given as 7-ethoxyresorufin (35.11) %.

Turning to `C[C@H](CCC(=O)O)[C@H]1CC[C@H]2[C@@H]3[C@H](O)C[C@@H]4C[C@H](O)CC[C@]4(C)[C@H]3CC[C@]12C` [Chenodeoxycholic acid], the fraction remaining at 1 h, 2 µM at UGT1A3 is 59.4%.

With `COc1c(C)c2c(c(O)c1C/C=C(\C)CCC(=O)O)C(=O)OC2` [Mycophenolic acid], the amount remaining at 1 h, 0.2 µM on UGT1A9 turned out to be 0%.

For the molecule `CCOc1ccc(NC(C)=O)cc1` [Phenacetin], the amount remaining at 1 h, 10 µM was determined as 65.8% at CYP1A2 and 41% at CYP1A1.

Regarding `CN1CCN(CCCN2c3ccccc3Sc3ccc(C(F)(F)F)cc32)CC1` [Trifluoperazine], on UGT1A4, the amount remaining at 1 h, 0.5 µM was found to be 73.1%.

For the molecule `Cc1cn([C@H]2C[C@H](N=[N+]=[N-])[C@@H](CO)O2)c(=O)[nH]c1=O` [Zidovudine], the share remaining at 1 h, 10 µM on UGT2B7 amounted to 74.4%.
